Experimental data as given in patent publication US4617269A, “Process for the preparation of fructosyl disaccharides” (priority 1983, dated 1986).
Where two headings read alike, the source gives them in different places.

Tests used:
[1] = Sweetness relative to sucrose
[2] = test system: Dedonder's levan sucrase from B.subtilis BS5 (a clone from B.subtilis var. nigra); conditions: cited from earlier work

With `C[C@H]1O[C@H](O[C@]2(CCl)O[C@H](CCl)[C@@H](O)[C@@H]2O)[C@H](O)[C@@H](O)[C@H]1Cl` [4,1',6'-trichloro-4,6,1',6'-tetradeoxygalactosucrose] the “sweetness, times as sweet as sucrose” value ([1]; 8% solution) was 400 times as sweet as sucrose.

With `O[C@@H]1[C@@H](O)[C@@H](O[C@]2(CCl)O[C@H](CCl)[C@@H](O)[C@@H]2O)OC[C@@H]1Cl` [Example 8] the “sweetness, times as sweet as sucrose” value ([1]; in a 2% solution) was 25 times as sweet as sucrose.

With `OC[C@H]1O[C@H](O[C@]2(CO)O[C@H](CO)[C@@H](O)[C@@H]2O)[C@H](O)[C@@H](O)[C@H]1O` [Galactosucrose, β-D-fructofuranosyl (2→1)-D-galactopyranoside] the sweetness ([1]; only a trace of sweetness) was 10-15 % of sucrose.

In the case of `OC[C@H]1O[C@@](CO)(O[C@H]2O[C@H](CO)[C@@H](O)[C@H](O)[C@H]2O)[C@@H](O)[C@@H]1O` [sucrose, β-D-fructofuranosyl α-D-glucopyranoside], the Km ([2]; Dedonder (loc.cit.) BS5 strain enzyme, read-out: Km (sucrose), quoted) is listed as ~20 mM and the Km ([2]; reported for Dedonder's levan sucrase, read-out: Km for sucrose) is listed as 20 mM.
